The record followed here is US20080200444A1, “SOLUBLE EPOXIDE HYDROLASE INHIBITORS” (Arete Therapeutics, Inc., priority 2006, published 2008).

The term % Inhibition denotes the change of the read-out against control, counted positive when it falls.

Molecules are shown by their SMILES.

This experiment has as its system soluble epoxide hydrolase (sEH). As to the kind of experiment: Fluorescent assay for mouse and human soluble epoxide hydrolase (CMNPC substrate). The class given is biochemical. As to conditions: inhibitor at 50 nM; recombinant sEH, CMNPC substrate 5 μM, 30° C., pH 7.0; mouse or human enzyme not given. From the text: Fluorescent Assay for Mouse and Human Soluble Epoxide Hydrolase
Recombinant mouse sEH (MsEH) and human sEH (HsEH) were produced in a baculovirus expression system as previously reported. Grant et al., J. Biol. Chem., 268:17628-17633 (1993); Beetham et al., Arch. Biochem. Biophys., 305:197-201 (1993). The expressed proteins were purified from cell lysate by affinity chromatography. Wixtrom et al., Anal. Biochem., 169:71-80 (1988). Protein concentration was quantified using the Pierce BCA assay using bovine serum albumin as the calibrating standard. The preparations were at least 97% pure as judged by SDS-PAGE and scanning densitometry. They contained no detectable esterase or glutathione transferase activity which can interfere with the assay. The assay was also evaluated with similar results in crude cell lysates or homogenate of tissues.
The IC50s for each inhibitor were according to the following procedure:
Cyano(2-methoxynaphthalen-6-yl)methyl(3-phenyloxiran-2-yl)methyl carbonate (CMNPC; Jones P. D. et. al.; Analytical Biochemistry 2005; 343: pp.66-75)
Bis/Tris HCl 25 mM pH 7.0 containing 0.1 mg/mL of BSA (buffer A)
CMNPC at 0.25 mM in DMSO.
Mother solution of enzyme in buffer A (Mouse sEH at 6 μg/mL and Human sEH at 5 μg/mL).
Inhibitor dissolved in DMSO at the appropriate concentration.
In a black 96 well plate, fill all the wells with 150 μL of buffer A.
Add 2 μL of DMSO in well A2 and A3, and then add 2 μL of inhibitor solution in A1 and A4 through A12.
Add 150 μL of buffer A in row A, then mix several time and transfer 150 μL to row B. Repeat this operation up to row H. The 150 μL removed from row H is discarded.
Add 20 μL of buffer A in column 1 and 2, then add 20 μL of enzyme solution to column 3 to 12.
Incubate the plate for 5 minutes in the plate reader at 30° C.
During incubation prepare the working solution of substrate by mixing 3.68 mL of buffer A (4×0.920 mL) with 266 μL (2×133 μL) of substrate solution).
At t=0, add 30 μL of working substrate solution with multi-channel pipette labeled “Briggs 303” and start the reading ([S]final: 5 μM).
Read with ex: 330 nm (20 nm) and em: 465 nm (20 nm) every 30 second for 10 minutes. The velocities are used to analyze and calculate the IC50s.
As for `CC(=O)N1CCCC(NC(=O)NC23CC4CC(CC(C4)C2)C3)C1` (stereo not shown) [Compound 1, 1-(1-Acetyl-piperidin-3-yl)-3-adamantan-1-yl-urea], the “% Inhibition at 50 nM” value amounted to 69%.

Regarding `CS(=O)(=O)N1CCCC(NC(=O)NC23CC4CC(CC(C4)C2)C3)C1` (stereo not shown) [Compound 2, 1-Adamantan-1-yl-3-(1-methanesulfonyl-piperidin-3-yl)-urea], the “% Inhibition at 50 nM” value stood at 76%.

Regarding `O=C(NC1CCCN(S(=O)(=O)c2ccc(Cl)cc2)C1)NC12CC3CC(CC(C3)C1)C2` (stereo not shown) [Compound 3, 1-Adamantan-1-yl-3-[1-(4-chloro-benzenesulfonyl)-piperidin-3-yl]-urea], the “% Inhibition at 50 nM” value is 94%.

Consider `O=C(NC1CCCN(S(=O)(=O)c2cccc(C(F)(F)F)c2)C1)NC12CC3CC(CC(C3)C1)C2` (stereo not shown) [Compound 4, 1-Adamantan-1-yl-3-[1-(3-trifluoromethyl-benzenesulfonyl)-piperidin-3-yl]-urea], for which the “% Inhibition at 50 nM” value amounted to 95%.
